Test results published in patent publication US10834886B2, “Switchgrass cultivar PanIR” (priority 2017, dated 2020).

Tests used:
[1] = test system: Alamo (Cycle0) lowland switchgrass; assay: Agar/growth chamber germination on water agar + imazapic; type: in vivo, Panicum virgatum; details: controlled conditions
Description: (§1) Since field emergence relies on soil tilth, rainfall, planter depth, and a host of other conditions, the inventors opted for a more uniform method of testing resistance: imazapic-dosed water agar. Data from germination under controlled conditions indicated significant progress for resistance to imazapic (Table 3) over three cycles of selection.

PanIR Cycle3 switchgrass = assay: as above; type: in vivo, Panicum virgatum; details: 2.3 times higher rate, controlled conditions
Description: as §1

[2] = test system: Indiangrass (resistant check); assay: Field emergence: seedlings surviving imazapic application; type: in vivo, Sorghastrum nutans; details: 14 oz/A
Description: (§2) Plants were seeded in July and August of 2014 and during May of 2015. Data presented in Table 4 indicates 2014 testing at three locations (Brooksville, Newton, and Starkville). At all locations, PanIR seedling numbers exceeded all other generations of selection as well as the resistant check (indiangrass).

[3] = test system: Alamo (Cycle 0) switchgrass; assay: as above; type: in vivo, Panicum virgatum; details: 14 oz/A
Description: as §2

Cycle 1 switchgrass = assay: as above; type: in vivo, Panicum virgatum; details: 14 oz/A
Description: as §2

Cycle 2 switchgrass = assay: as above; type: in vivo, Panicum virgatum; details: 14 oz/A
Description: as §2

[4] = test system: PanIR (Cycle 3) switchgrass; assay: as above; type: in vivo, Panicum virgatum; details: 14 oz/A
Description: as §2

Rapid Germ Switchgrass = assay: as above; type: in vivo, Panicum virgatum; details: 14 oz/A
Description: as §2

[5] = test system: Alamo switchgrass seedlings (Cycle0); assay: Herbicide screening of seedlings, Zero: First Generation Selection; type: in vivo, Panicum virgatum
Description: Selection for herbicide resistance was conducted using methods similar to the study performed by Bahler and others (1983). Heavy duty plastic and metal trays measuring 51.5 cm×36.5 cm were used to hold the germinating seedlings during growth and also allowed for easy maintenance and efficient application of herbicide. The testing was conducted in a greenhouse that maintained a nightly temperature of 20° C. and a daily temperature of 30° C. Before the autumnal equinox, day length was not supplemented for the experiment. After the equinox, light was extended to 16 hrs. Day length is a concern due to switchgrass' photoperiodic nature. Eight trays represent a replicate, which were repeated over time. Each tray was filled with autoclaved field soil approximately ¾ full. A 2.5 cm×30.5 cm piece of PVC pipe was used to form ten micro-furrows spaced at 5 cm within each tray. Nine of the ten rows were planted with approximately […] Alamo switchgrass seed (Sharp Brothers, Healy, Kans.). The remaining, randomly selected row was planted with 250 indiangrass seed (MSU 3rd cycle of selection for precocious germination). One hundred (100) seed were evenly dispersed within each furrow of the flat; flats were top-dressed with 0.63 cm of autoclaved field soil. The trays were watered on a daily basis. Emergence of the seedlings usually took place 6-8 days after planting. Once the seedlings broke the soil surface, they were allowed to grow to the three leaf stage (approximately 14 days). A calibrated spray chamber was used to apply the herbicide to the seedlings in the trays. For imazapic, the recommended rate is 140 g a.i./ha on mixed grassland, applied with less than 93.54 liters of water per hectare, sprayed at a constant pressure of 40 psi. A spray adjuvant (nonionic surfactant) was added to the formulation. In order to achieve the correct amounts for the spray mixture, the following calculations were made: (8 fl.oz./1 ac.)×(1 ac./15 gal.sol.)×(1 gal./128 fl.oz.sol.)×(20 f.oz.sol./1 bottle)×(3785 ml/128 fl.oz.)=2.46 ml/1 bottle H2O (3-1) The formulation requires 2.46 mls of Plateau®, 1.5 mls of surfactant, and 556 mls of water to fill the spray bottle for the chamber. The trays were placed two at a time in the chamber and sprayed at a fixed speed ([…]) to ensure proper dosage. A dose response curve was conducted on the sixth trial to determine the rate of Plateau® that would kill a majority of the switchgrass seedlings (Table 1).
The upper limit was 245 g a.i./ha, which exceeded the labeled rate for big bluestem and indiangrass. […] Eight trays represented the curve and were assessed on the amount of discoloration relative to the unsprayed tray. […]

[6] = test system: Cycle1 switchgrass seedlings; assay: Herbicide screening of seedlings, First: Second Generation Selection; type: in vivo
Description: Subsequent testing of the first generation seed/seedlings was conducted in the same manner as the initial herbicide screenings. The planting of the trays consisted of 8 rows of the first generation, one row Alamo, and one row indiangrass (tolerant control).
Seedlings of Cycle1 (315,360) were screened for tolerance to 14 oz/A (2×) rate of Plateau®. Ninety-seven (97) survived the initial imazapic application. Sixty-eight (68) succumbed to a second (8 oz/A) application leaving twenty-nine (29) tolerant individuals which were planted in an isolated crossing block at Longview, Miss. (33.404999, −88.938283) as Cycle2.

[7] = test system: switchgrass cultivars, Alamo and Kanlow; details: pre-plant application; cited from earlier work
switchgrass stands = details: in vivo; cited from earlier work

With Cc1cnc(C2=NC(C)(C(C)C)C(=O)N2)c(C(=O)O)c1 (stereo not shown) [imazapic, 5-methyl-2-[4-methyl-5-oxo-4-(propan-2-yl)-4,5-dihydro-1H-imidazol-2-yl]pyridine-3-carboxylic acid] the “resistance as percentage of the population” value [1] was “approximately 3%”, the “resistance as percentage of the population” value (PanIR Cycle3 switchgrass) was “about 93.6%” and the “Number of seedlings surviving, 42 days after spraying” value (“Number of seedlings surviving” below) ([2]; Brooksville 2014) was 16.25^†B* seedlings emerged per 30 cm of row. The “Number of seedlings surviving” value ([2]; Brooksville 2015) was 24.50^†B* seedlings emerged per 30 cm of row, the “Number of seedlings surviving” value ([2]; Newton 2014) was 14.50 B seedlings emerged per 30 cm of row and the “Number of seedlings surviving” value ([2]; Starkville 2014) was 19.75 B seedlings emerged per 30 cm of row. For the same compound, the “Number of seedlings surviving” value ([2]; Starkville 2015) was 13.33 B seedlings emerged per 30 cm of row, the “Number of seedlings surviving” value ([3]; Brooksville 2014) was 2.00 B seedlings emerged per 30 cm of row and the “Number of seedlings surviving” value ([3]; Brooksville 2015) was 5.75 BC seedlings emerged per 30 cm of row. For the same compound, the “Number of seedlings surviving” value ([3]; Newton 2014) was 6.50 B seedlings emerged per 30 cm of row, the “Number of seedlings surviving” value ([3]; Starkville 2014) was 8.25 BC seedlings emerged per 30 cm of row and the “Number of seedlings surviving” value ([3]; Starkville 2015) was 1.00 B seedlings emerged per 30 cm of row. For the same compound, the “Number of seedlings surviving” value (Cycle 1 switchgrass; Brooksville 2014) was 8.25 B seedlings emerged per 30 cm of row, the “Number of seedlings surviving” value (Cycle 1 switchgrass; Brooksville 2015) was 19.25 BC seedlings emerged per 30 cm of row and the “Number of seedlings surviving” value (Cycle 1 switchgrass; Newton 2014) was 10.25 B seedlings emerged per 30 cm of row. For the same compound, the “Number of seedlings surviving” value (Cycle 1 switchgrass; Starkville 2014) was 3.25 C seedlings emerged per 30 cm of row, the “Number of seedlings surviving” value (Cycle 1 switchgrass; Starkville 2015) was 2.00 B seedlings emerged per 30 cm of row and the “Number of seedlings surviving” value (Cycle 2 switchgrass; Brooksville 2014) was 14.25 B seedlings emerged per 30 cm of row. For the same compound, the “Number of seedlings surviving” value (Cycle 2 switchgrass; Brooksville 2015) was 18.75 BC seedlings emerged per 30 cm of row, the “Number of seedlings surviving” value (Cycle 2 switchgrass; Newton 2014) was 13.00 B seedlings emerged per 30 cm of row and the “Number of seedlings surviving” value (Cycle 2 switchgrass; Starkville 2014) was 13.75 BC seedlings emerged per 30 cm of row. The “Number of seedlings surviving” value (Cycle 2 switchgrass; Starkville 2015) was 5.67 B seedlings emerged per 30 cm of row, the “Number of seedlings surviving” value ([4]; Brooksville 2014) was 53.00 A seedlings emerged per 30 cm of row and the “Number of seedlings surviving” value ([4]; Brooksville 2015) was 115.75 A seedlings emerged per 30 cm of row. For the same compound, the “Number of seedlings surviving” value ([4]; Newton 2014) was 43.00 A seedlings emerged per 30 cm of row, the “Number of seedlings surviving” value ([4]; Starkville 2014) was 49.50 A seedlings emerged per 30 cm of row and the “Number of seedlings surviving” value ([4]; Starkville 2015) was 16.00 A seedlings emerged per 30 cm of row. The “Number of seedlings surviving” value (Rapid Germ Switchgrass; Brooksville 2014) was 2.75 B seedlings emerged per 30 cm of row, the “Number of seedlings surviving” value (Rapid Germ Switchgrass; Brooksville 2015) was 0.00 C seedlings emerged per 30 cm of row and the “Number of seedlings surviving” value (Rapid Germ Switchgrass; Newton 2014) was 2.00 B seedlings emerged per 30 cm of row. The “Number of seedlings surviving” value (Rapid Germ Switchgrass; Starkville 2014) was 2.00 C seedlings emerged per 30 cm of row, the “Number of seedlings surviving” value (Rapid Germ Switchgrass; Starkville 2015) was 1.00 B seedlings emerged per 30 cm of row and the selection intensity ([5]; 364,650 seedlings, 63 survivors, 245 g a.i./ha) was 0.0172%. For the same compound, the selection intensity ([5]; Cycle0 (Alamo): 63 individuals selected out of 306,000 seedlings) was 0.0205%, the “individuals surviving the initial screening” value ([5]; approximately 364,650 Alamo individuals screened, 8 oz/A) was 78 individuals and the “individuals remaining in base population after second screening” value ([5]; the 78 survivors exposed to one-time application of 14 oz/A) was 63 individuals. For the same compound, the selection intensity ([6]; Cycle1: 29 seedlings selected out of 36,441 seedlings) was 0.0795% and the mortality rate ([6]; seedlings produced from the first cycle polycross of selection) was “greater than 75%”.
For CCC(CC)Nc1c([N+](=O)[O-])cc(C)c(C)c1[N+](=O)[O-] [Pendimethalin, pendimethalin], the mortality of stands [7] is listed as “up to 50%”.
For CCNc1nc(Cl)nc(NC(C)C)n1 [atrazine], the “effect on switchgrass stands” value (switchgrass stands) is given as “no deleterious effects”.
